Measurements published in patent publication US8883782B2, “Spiro-tetracyclic ring compounds as beta-secretase modulators and methods of use” (Amgen Inc., priority 2010, dated 2014).
Like-named read-outs stand apart in the source and are kept apart here.

What was measured:
[1] = target: Beta Secretase enzyme (BACE) (Homo sapiens, UniProt P56817); assay: In vitro enzymatic BACE FRET (fluorescence resonance energy transfer) assay; type: biochemical; details: average IC50, enzyme assay; read-out: BACE 1 FRET assay
Method in brief: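 Enzyme activity was measured at pH 4.2 (0.05 M acetate, 10% DMSO final, 100 uM genapol) by cleavage of a 50 nM quenched fluorogenic peptide. After one hour, Tris was added to neutralise the pH and fluorescence was recorded.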

[2] = test system: Aβ40 in conditioned medium of cells stably expressing Amyloid Precursor Protein (APP); assay: In vitro BACE cell-based assay (Aβ40 in conditioned medium, sandwich ELISA); details: Homo sapiens, read-out: HEK cell assay
Method in brief: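 Secreted Aβ40 is captured with pAb40 and detected with biotinylated 6E10, read by europium time-resolved fluorescence. IC50 comes from percent inhibition versus concentration.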

[3] = HEK293, average IC50, HEK cells

Beta Secretase enzyme (BACE), sequence (P56817 46-501, species assumed): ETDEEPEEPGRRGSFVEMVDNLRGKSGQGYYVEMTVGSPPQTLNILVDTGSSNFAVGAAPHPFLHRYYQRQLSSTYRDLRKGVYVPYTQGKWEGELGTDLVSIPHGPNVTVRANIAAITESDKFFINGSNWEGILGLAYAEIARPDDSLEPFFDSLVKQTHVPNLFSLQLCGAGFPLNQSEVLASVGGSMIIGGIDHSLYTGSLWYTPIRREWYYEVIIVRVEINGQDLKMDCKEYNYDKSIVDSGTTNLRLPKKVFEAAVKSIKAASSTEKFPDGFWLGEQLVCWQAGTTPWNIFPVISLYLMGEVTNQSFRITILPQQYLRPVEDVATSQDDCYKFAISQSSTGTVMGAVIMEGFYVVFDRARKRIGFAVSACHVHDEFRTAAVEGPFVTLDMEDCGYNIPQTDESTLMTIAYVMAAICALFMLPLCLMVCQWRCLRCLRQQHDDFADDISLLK

IC50 [1]	IC50 [2, 3]	IC50 ([2]; HEK293, average IC50)	Structure (SMILES)
672 nM	10000 nM		N#Cc1ncccc1-c1ccc2c(c1)[C@@]1(COC(N)=N1)c1cc(Cl)ncc1O2 [Example 387, 3-((5S)-2′-amino-3-chlorospiro[chromeno[2,3-c]pyridine-5,4′-[1,3]oxazol]-7-yl)-2-pyridinecarbonitrile]
2.7 nM		19.8 nM	CC(C)(F)COc1cc(F)c2c(c1)[C@]1(COC(N)=N1)c1cc(-c3ccc(F)nc3)ccc1O2 [Example 259, (4S)-4′-fluoro-2′-(2-fluoro-2-methylpropoxy)-7′-(6-fluoro-3-pyridinyl)spiro[1,3-oxazole-4,9′-xanthen]-2-amine]
0.5 nM	23 nM		NC1=N[C@@]2(CS1)c1cc(-c3cccnc3)c(F)cc1Oc1c(F)cc(C3=CCOCC3)cc12 [Example 881, (4S)-7′-(3,6-dihydro-2H-pyran-4-yl)-3′,5′-difluoro-2′-(3-pyridinyl)spiro[1,3-thiazole-4,9′-xanthen]-2-amine]
137 nM	3220 nM		NC1=N[C@]2(CO1)c1cc(-c3cccnc3F)ccc1Oc1nc(F)c(C3=CCCOC3)cc12 [Example 902, (5R)-3-(5,6-dihydro-2H-pyran-3-yl)-2-fluoro-7-(2-fluoro-3-pyridinyl)spiro[chromeno[2,3-b]pyridine-5,4′-[1,3]oxazol]-2′-amine]
0.2 nM	12 nM		N#Cc1cccc(-c2ccc3c(c2)[C@@]2(COC(N)=N2)c2cc(N4CCC(F)(F)C4)nc(F)c2O3)c1 [Example 920, 3-((5S)-2′-amino-3-(3,3-difluoro-1-pyrrolidinyl)-1-fluorospiro[chromeno[2,3-c]pyridine-5,4′-[1,3]oxazol]-7-yl)benzonitrile]
2 nM	31 nM		COc1ncc(-c2cc3c(cn2)Oc2ccc(-c4cccnc4F)cc2[C@@]32COC(N)=N2)cc1F [Example 570, (5S)-3-(5-fluoro-6-methoxy-3-pyridinyl)-7-(2-fluoro-3-pyridinyl)spiro[chromeno[2,3-c]pyridine-5,4′-[1,3]oxazol]-2′-amine]
0.6 nM	5 nM		CC1(COc2cc(F)c3c(c2)[C@]2(COC(N)=N2)c2cc(-c4cnccc4F)ccc2O3)COC1 [Example 604, (4S)-4′-fluoro-7′-(4-fluoro-3-pyridinyl)-2′-((3-methyl-3-oxetanyl)methoxy)spiro[1,3-oxazole-4,9′-xanthen]-2-amine]
2370 nM	169 nM		COc1ccc2c(c1)[C@@]1(COC(N)=N1)c1cc(N3CCN(C)C(C)(C)C3)cc(F)c1O2 [Example 532, (4S)-4′-fluoro-7′-methoxy-2′-(3,3,4-trimethyl-1-piperazinyl)spiro[1,3-oxazole-4,9′-xanthen]-2-amine]
2 nM		2 nM	NC1=N[C@@]2(CO1)c1cc(-c3cccnc3F)ccc1Oc1c(F)cc(N3CC4(COC4)C3)cc12 [Example 1087, (4S)-4′-fluoro-7′-(2-fluoro-3-pyridinyl)-2′-(2-oxa-6-azaspiro[3.3]hept-6-yl)spiro[1,3-oxazole-4,9′-xanthen]-2-amine]
1.7 nM	38.2 nM		NC1=N[C@@]2(CO1)c1cc(-c3cncnc3)ccc1Oc1cnc(-c3ccnc(F)c3)cc12 [Example 539, (5S)-3-(2-fluoro-4-pyridinyl)-7-(5-pyrimidinyl)spiro[chromeno[2,3-c]pyridine-5,4′-[1,3]oxazol]-2′-amine]
9.9 nM		95.8 nM	CC(C)(C)C#Cc1cc2c(cn1)Oc1cc(F)c(-c3cncnc3)cc1[C@@]21COC(N)=N1 [Example 305, (5S)-3-(3,3-dimethyl-1-butyn-1-yl)-8-fluoro-7-(5-pyrimidinyl)spiro[chromeno[2,3-c]pyridine-5,4′-[1,3]oxazol]-2′-amine]
1.2 nM		15.8 nM	CC1(C)CC(c2cnc3c(c2)[C@]2(COC(N)=N2)c2c(ccc(-c4cncnc4)c2F)O3)=CCO1 [Example 353, (5R)-3-(2,2-dimethyl-3,6-dihydro-2H-pyran-4-yl)-6-fluoro-7-(5-pyrimidinyl)spiro[chromeno[2,3-b]pyridine-5,4′-[1,3]oxazol]-2′-amine]
1.4 nM		8 nM	CC1(C)CC(=O)N(c2cc(F)c3c(c2)[C@]2(COC(N)=N2)c2cc(-c4cccnc4)ccc2O3)C1 [Example 798, 1-((4S)-2-amino-4′-fluoro-7′-(3-pyridinyl)spiro[1,3-oxazole-4,9′-xanthen]-2′-yl)-4,4-dimethyl-2-pyrrolidinone]
0.7 nM		21 nM	COc1nc(C2=CCCOC2)cc2c1Oc1ccc(-c3cccnc3F)cc1[C@@]21COC(N)=N1 [Example 833, (5S)-3-(5,6-dihydro-2H-pyran-3-yl)-7-(2-fluoro-3-pyridinyl)-1-methoxyspiro[chromeno[2,3-c]pyridine-5,4′-[1,3]oxazol]-2′-amine]
1.9 nM	61 nM		NC1=N[C@@]2(CO1)c1cc(-c3cccnc3F)ccc1Oc1cnc(N3C[C@@H]4C[C@H]3CO4)cc12 [Example 891, (5S)-7-(2-fluoro-3-pyridinyl)-3-((1S,4S)-2-oxa-5-azabicyclo[2.2.1]hept-5-yl)spiro[chromeno[2,3-c]pyridine-5,4′-[1,3]oxazol]-2′-amine]
0.8 nM		8 nM	CC#Cc1cncc(-c2ccc3c(c2)[C@@]2(COC(N)=N2)c2cc(-c4ccnc(C)c4)nc(F)c2O3)c1 [Example 740, (5S)-1-fluoro-3-(2-methyl-4-pyridinyl)-7-(5-(1-propyn-1-yl)-3-pyridinyl)spiro[chromeno[2,3-c]pyridine-5,4′-[1,3]oxazol]-2′-amine]
63.3 nM	224 nM		NC1=N[C@]2(CO1)c1cc(-c3ccnc(F)c3)ccc1Oc1cnc(-c3cncnc3)cc12 [Example 393, (5R)-7-(2-fluoro-4-pyridinyl)-3-(5-pyrimidinyl)spiro[chromeno[2,3-c]pyridine-5,4′-[1,3]oxazol]-2′-amine]
94 nM		650 nM	CC1(C#Cc2cnc3c(c2)[C@@]2(COC(N)=N2)c2c(ccc(-c4cncnc4)c2F)O3)COC1 [Example 345, (5S)-6-fluoro-3-((3-methyl-3-oxetanyl)ethynyl)-7-(5-pyrimidinyl)spiro[chromeno[2,3-b]pyridine-5,4′-[1,3]oxazol]-2′-amine]
0.5 nM		5 nM	CC#Cc1cncc(-c2ccc3c(c2)[C@@]2(COC(N)=N2)c2cc(-c4ccncc4)nc(F)c2O3)c1 [Example 739, (5S)-1-fluoro-7-(5-(1-propyn-1-yl)-3-pyridinyl)-3-(4-pyridinyl)spiro[chromeno[2,3-c]pyridine-5,4′-[1,3]oxazol]-2′-amine]
11.8 nM	148 nM		NC1=N[C@@]2(CO1)c1cc(-c3cccnc3F)ccc1Oc1cnc(-c3ccncc3F)cc12 [Example 572, (5S)-7-(2-fluoro-3-pyridinyl)-3-(3-fluoro-4-pyridinyl)spiro[chromeno[2,3-c]pyridine-5,4′-[1,3]oxazol]-2′-amine]
0.3 nM	5 nM		NC1=N[C@@]2(CO1)c1cc(-c3cccnc3F)c(F)cc1Oc1c(F)cc(C3=CCCOC3)cc12 [Example 865, (4S)-7′-(5,6-dihydro-2H-pyran-3-yl)-3′,5′-difluoro-2′-(2-fluoro-3-pyridinyl)spiro[1,3-oxazole-4,9′-xanthen]-2-amine]
0.5 nM		3 nM	CC1(C#Cc2cnc3c(c2)[C@]2(COC(N)=N2)c2cc(-c4cncc(Cl)c4)ccc2O3)COC1 [Example 186, (5S)-7-(5-chloro-3-pyridinyl)-3-((3-methyl-3-oxetanyl)ethynyl)spiro[chromeno[2,3-b]pyridine-5,4′-[1,3]oxazol]-2′-amine]
17.7 nM	165 nM		NC1=N[C@@]2(CO1)c1cc(-c3cc(F)cnc3F)ccc1Oc1cnc(C3=CCOCC3)cc12 [Example 600, (5S)-7-(2,5-difluoro-3-pyridinyl)-3-(3,6-dihydro-2H-pyran-4-yl)spiro[chromeno[2,3-c]pyridine-5,4′-[1,3]oxazol]-2′-amine]
3 nM	14.1 nM		COC(C)(C)CNc1cc2c(cn1)Oc1ccc(-c3cccnc3F)cc1[C@@]21COC(N)=N1 [Example 418, (5S)-7-(2-fluoro-3-pyridinyl)-N~3~-(2-methoxy-2-methylpropyl)spiro[chromeno[2,3-c]pyridine-5,4′-[1,3]oxazole]-2′,3-diamine]
2.6 nM	12.5 nM		CC1(C)CC(c2ccc3c(c2)[C@]2(COC(N)=N2)c2cc(-c4cncnc4)c(F)cc2O3)=CCO1 [Example 505, (4R)-7′-(2,2-dimethyl-3,6-dihydro-2H-pyran-4-yl)-3′-fluoro-2′-(5-pyrimidinyl)spiro[1,3-oxazole-4,9′-xanthen]-2-amine]
9.4 nM		63.1 nM	N#Cc1cccc(-c2ccc3c(c2)[C@@]2(COC(N)=N2)c2cc(C4=CCOCC4)ccc2O3)c1 [Example 195, 3-((4R)-2-amino-7′-(3,6-dihydro-2H-pyran-4-yl)spiro[1,3-oxazole-4,9′-xanthen]-2′-yl)benzonitrile]
49.5 nM		165 nM	Cn1ccc(-c2cnc3c(c2)[C@]2(COC(N)=N2)c2cc(C#CC(C)(C)C)ccc2O3)n1 [Example 180, (5S)-7-(3,3-dimethyl-1-butyn-1-yl)-3-(1-methyl-1H-pyrazol-3-yl)spiro[chromeno[2,3-b]pyridine-5,4′-[1,3]oxazol]-2′-amine]
8.7 nM	188 nM		NC1=N[C@@]2(CS1)c1cc(-c3cccnc3F)ccc1Oc1ncc(Br)cc12 [Example 603, (5S)-3-bromo-7-(2-fluoro-3-pyridinyl)spiro[chromeno[2,3-b]pyridine-5,4′-[1,3]thiazol]-2′-amine]
